Assay results taken from publication PMC10777851, “SMT-738: a novel small-molecule inhibitor of bacterial lipoprotein transport targeting Enterobacteriaceae” (Antimicrobial Agents and Chemotherapy, 2023).

Columns and labels:
HEK293 = experiment: Cytotoxicity (CellTiter-Glo), HEK293; assay type: cell-based; conditions: HEK293, 24 h
Procedure: HepG2 (ATCC, HB-8065) and HEK293 (ATCC, CRL-1573) were sourced from ATCC. For the cytotoxicity assay, cells were seeded onto 96-well plates, which were then incubated for 24 h in a 5% CO2 incubator at 37°C. On the day of the assay, 10-point, twofold serial dilutions of test compound were prepared in assay media (MEM + 10% FBS) in separate 96-well plates. Assay plates were removed from the incubator, and the media from all of the wells were removed, taking care not to disturb the cell layer. Compound-containing assay media or control media were added to the relevant wells. Assay plates were returned to the 5% CO2 incubator at 37°C for 24 h. CellTiter-Glo reagent (Promega, G7570) was used to determine the viability of the cells.

[1] = system: human lymphoblastoid TK6 cells; experiment: GreenScreen genotoxicity assay; assay type: cell-based; conditions: top concentration of 500 µM (= 196.85 µg/mL)
Procedure: The standard GreenScreen genotoxcity assay was performed by Cyprotex, UK. The assay uses two strains of human lymphoblastoid TK6 cells, the test strain (GenM-[…]), and the non-fluorescent control strain (GenM-C01). Incorporated in the test strain is a patented green fluorescent protein (GFP) reporter system that exploits the proper regulation of the GADD45a gene, which mediates the adaptive response to genotoxic stress.

Protein binding, rat = assay type: in vitro ADME
K. pneumoniae NCTC 13438 = experiment: Time-kill experiment, K. pneumoniae; assay type: cell-based, Klebsiella pneumoniae; conditions: 2× and 4× the MIC
Procedure: (§1) An overnight culture of the test strain was diluted to a viable cell density of ~10^6 CFU/mL and dispensed into 96-well plates containing dilutions of SMT-738 to yield the specified multiple of the MIC. Plates were sealed with a breathable seal and incubated under shaking conditions in a humid incubator at 37°C. At specific timepoints (t = 0, 1, 2, 4, 6, 8, and 24 h), samples were taken and plated onto MH agar plates, and colonies enumerated after overnight growth at 37°C. Viable cell numbers as log10 (CFU/mL) were then plotted against time. Where no colonies were detected, the limit of detection was 100 CFU/mL. Compound activity was scored as bactericidal if the viable cell count decreased by at least 3 log10 from the initial count.

E. coli NCTC 13441 = experiment: Time-kill experiment, E. coli; assay type: cell-based, Escherichia coli; conditions: 2× and 4× the MIC
Procedure: as §1

[2] = system: anaerobic gut commensals such as Actinomyces sp., Bacteroides sp., Clostridioides sp., Bifidobacterium sp., Peptostreptococcus sp., and Veillonella sp.; experiment: MIC, panel of 100 bacterial species: anaerobic gut commensals; assay type: cell-based
Procedure: MIC tests were performed by broth microdilution in-line with CLSI susceptibility testing standards ([20], [21]) either in-house or at IHMA (Europe and USA) or JMI Laboratories using cation-adjusted Mueller Hinton Broth.

Protein binding, dog = assay type: in vitro ADME
[3] = system: UPEC (E. coli NCTC 13441); experiment: Frequency of resistance determination, E. coli; assay type: cell-based, Escherichia coli; conditions: for FoR Range: experiments with colonies observed
Procedure: The FoR of bacterial strains to test compounds was determined by plating aliquots of overnight cultures onto MH-agar plates containing dilutions of the test compound at various multiples of reference MIC as previously determined. Total viable counts of the overnight cultures were determined by spotting 10–20 µL of decimal dilutions in 1× phosphate-buffered saline (PBS) onto non-selective agar. Assay plates were incubated for up to 48 h with colonies being enumerated every 24 h. FoR was determined by dividing the number of colonies observed by the total number of viable cells plated. Representative colonies were then picked and streaked onto selective agar to confirm resistance and obtain resistant isolates. Isolates growing on selective agar were then used to initiate overnight cultures, bacteria pelleted by centrifugation, supernatant removed, and pellets stored at −80°C for subsequent DNA extraction and whole-genome sequencing. Genomic DNA was extracted using the DNeasy Blood and Tissue Kit (Qiagen), quantified using the Quant-iT TM PicoGreen TM dsDNA Assay Kit (Thermo Fisher Scientific), and normalized to 0.2 ng/µL in nuclease-free water. Library preparation and barcode addition were with the Nextera XT DNA Library Prep Kit (Illumina). KAPA Pure beads (Roche) were used for DNA purification. Samples were pooled to achieve 100× coverage of each sample and run on an Illumina Nextseq 500/550 Mid Output Kit v2.5 (150 cycles) (Illumina).

[4] = Pharmacokinetics after IV bolus in mice; assay type: in vivo, male CD-1 mice; conditions: 20-mg/kg bolus IV
Procedure: Male CD-1 mice (from Charles River, Margate UK) were administered 20 mg/kg of SMT-738 via IV bolus route. At selected timepoints, blood, kidney tissue, lung tissue, and urine were collected and progressed for further analysis. The PK parameters included initial concentration (C 0) via extrapolation, clearance (CL), volume of distribution (V ss), and AUC0-t in plasma were determined using non-compartmental analysis. Tissue partitioning values were determined with ratio of AUC0-t,kidney/AUC0-t,plasma for kidney (K p,kidney) and ratio of AUC0-t,lung/AUC0-t,plasma for lung (K p,lung). The mean recovery (%) of SMT-738 unchanged in urine was determined by amount in urine compared to the intravenously administered dose. The study was conducted by Evotec Ltd (UK).

[5] = system: Renal proximal tubule epithelial cells; experiment: Nephrotoxicity assay (cell health markers); assay type: cell-based; conditions: top concentration of 500 µM (= 196.85 µg/mL)
Procedure: The standard nephrotoxicity assay was performed by Cyprotex, UK. Renal proximal tubule epithelial cells were exposed to a range of concentrations of compound, loaded with relevant dye/antibody for each cell health marker and scanned using a fluorescent cellular imager (ArrayScan, Thermo Scientific Cellomics). Cell health parameters that were analyzed: cell count, nuclear size, DNA structure, mitochondrial mass, mitochondrial membrane potential, phospholipidosis, glutathione content, and cellular ATP.

K. pneumoniae ATCC 43816 = experiment: Murine lung infection model (neutropenic); assay type: in vivo, male CD-1 mice; conditions: 20 mg/kg per dose QD or BID, 60-min IV infusion, 24 h post-infection
Procedure: Male JVC-cannulated CD-1 mice were rendered neutropenic using cyclophosphamide on days −4 and −1 (150 and 100 mg/kg, respectively). Mice were infected intranasally with K. pneumoniae ATCC 43816, and SMT-738 treatment was initiated at QD, 2 h post-infection; BID, 2 and 5 h post-infection. The pre-treatment control animals were euthanized at 2 h post-infection. All other study animals were euthanized at 24 h post-infection. Lungs were dissected and homogenized and quantitatively cultured, serially diluted, and plated on CLED agar, and CFU were quantified following overnight incubation at 30°C. A Kruskal-Wallis statistical test was performed.

## Cc1cnccc1-c1[nH]c(N)nc1-c1ccc2c(c1)N(C(=O)C(C)(C)N)CCO2 [SMT-738]
HEK293
  IC50: > 200 µM
  cytotoxicity IC50: > 78.74 µg/mL
[1]
  genotoxicity: No toxicity was observed
Protein binding, rat
  protein binding: 64.4%
K. pneumoniae NCTC 13438
  bacterial burden following 24-h exposure: below the limit of detection
  timepoint at which bactericidal activity was observed: 4 h
E. coli NCTC 13441
  re-growth over the 24-h timepoint: no observed re-growth
  timepoint at which bactericidal activity was displayed: 2 h
E. coli NCTC 13441; 2-h timepoint
  reduction of viability: > 3 log10 CFU/mL
[2]
  MIC: > 128 µg/mL
Protein binding, dog
  protein binding: 50.6%
[3]; 4× MICref, 48 h
  FoR Range: 1.52E-09
[3]; 8× MICref, 24 h
  FoR Range: 7.20E-10
[3]; single-step selection at 4× and 8× the MIC, after 24 and 48 h
  Frequency of resistance (FoR): ≤ 10^−9
[4]; AUC0-t,kidney/AUC0-t,plasma
  Kp,kidney: 44.8
[4]; AUC0-t,lung/AUC0-t,plasma
  Kp,lung: 8.1
[4]; over a 24-h period
  eliminated unchanged into the urine: approximately 29.5%
[4]; plasma
  CL: 59 mL/min/kg
  Vss: 4.3 L/kg
[4]; plasma, via extrapolation
  C0: 18,386 ng/mL
[5]
  nephrotoxicity: No toxicity was observed
K. pneumoniae ATCC 43816
  reduction of the bacterial burden below pre-treatment stasis level: 1–2 log10
